Molecules are shown by their SMILES. pEC50, pIC50: −log10 of the molar value.

The source of these data is BindingDB's records for doi:10.1016/j.bmc.2014.04.022 (Tohoku Pharmaceutical University, 2014).

Test [1] is described as follows: Antagonist activity at estrogen receptor in human MCF7 cells assessed as inhibition of estradiol-induced cell proliferation after 5 days by WST-8 assay. In general terms: Tetrazolium assays rely on reduction of a dye to a coloured formazan, in cell work by metabolically active cells.
Test [2] in a line: Agonist activity at estrogen receptor in human MCF7 cells assessed as induction of cell proliferation after 5 days by WST-8 assay.

Turning to `CN(C)CCOc1ccc(C23CC4CC(CC(c5ccc(O)cc5)(C4)C2)C3)cc1`, in test [1], the pIC50 is 5.97. Also, in test [2], the pEC50 is 7.80.

Broadly, the pIC50 is −log10 of the IC50, conventionally taken in molar units. By pEC50 is commonly meant the EC50 on a negative log10 scale, so that one unit is a factor of ten.
